The values below come from patent US20220227792A1, “CARBORANE HYDROXAMIC ACID MATRIX METALLOPROTEINASE AGENTS FOR BORON NEUTRON CAPTURE THERAPY” (LOYOLA UNIVERSITY OF CHICAGO, priority 2019, published 2022).

Each structure is given as a SMILES string.

Assay [1] concerns the target T1, MMP-2 (Homo sapiens, UniProt P08253).
T1 sequence (P08253 110-660): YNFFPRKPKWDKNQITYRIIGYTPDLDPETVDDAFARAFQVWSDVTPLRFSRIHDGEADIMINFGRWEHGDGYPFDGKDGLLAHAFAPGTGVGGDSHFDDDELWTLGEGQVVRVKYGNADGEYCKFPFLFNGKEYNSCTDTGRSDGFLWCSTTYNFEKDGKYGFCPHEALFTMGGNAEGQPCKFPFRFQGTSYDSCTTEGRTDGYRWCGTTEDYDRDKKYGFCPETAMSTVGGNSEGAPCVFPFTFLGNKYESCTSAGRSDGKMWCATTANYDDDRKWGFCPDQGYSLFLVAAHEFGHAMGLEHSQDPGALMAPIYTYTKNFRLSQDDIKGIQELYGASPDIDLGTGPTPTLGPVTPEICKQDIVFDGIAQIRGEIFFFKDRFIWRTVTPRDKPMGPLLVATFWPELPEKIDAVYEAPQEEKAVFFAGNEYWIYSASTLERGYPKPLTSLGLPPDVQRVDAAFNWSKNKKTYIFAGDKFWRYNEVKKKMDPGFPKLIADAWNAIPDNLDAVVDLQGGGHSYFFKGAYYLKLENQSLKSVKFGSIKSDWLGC
Briefly: MMP inhibition FRET assay, MMP-2. As to conditions: 390 MMP FRET Substrate I, room temperature, 30 minutes, duplicate; read-out: IC50 MMP2. It is filed as biochemical. As to the method: (§1) Serial dilutions of a compound were prepared with 10% DMSO and 5 μL of the dilution was added to a 50 μL reaction so that the final concentration of DMSO is 1% in all of reactions.
(§2) The enzymes were diluted in 50 mM HEPES buffer pH 7.4, 10 mM CaCl2, 0.05% Brij-35, and 1 mM APMA for activation at 37° C. for 2 hours.
(§3) […] activity assays were performed in duplicate at each concentration. The fluorescent intensity data were analyzed using the computer software, Graphpad Prism. In the absence of the compound, the fluorescent intensity (Ft) in each data set was defined as 100% activity. In the absence of enzyme, the fluorescent intensity (Fb) in each data set was defined as 0% activity. The percent activity in the presence of each compound was calculated according to the following equation: %activity=(F−Fb)/(Ft−Fb), where F=the fluorescent intensity in the presence of the compound.
(§4) The values of % activity versus a series of compound concentrations were then plotted using non-linear regression analysis of Sigmoidal dose-response curve generated with the equation Y=B+(T−B)/1+10^((Log EC50−X)×Hill Slope), where Y=percent activity, B=minimum percent activity, T=maximum percent activity, X=logarithm of compound and Hill Slope=slope factor or Hill coefficient. The IC50 value was determined by the concentration causing a half-maximal percent activity.

In assay [2] the target is MMP9 (Q279R) (Homo sapiens, UniProt P14780, Q279R). The experiment in a line: MMP inhibition FRET assay, MMP-9. It is filed as biochemical. As to conditions: 390 MMP FRET Substrate I, room temperature, 30 minutes, duplicate. As to the method:
as §1, §2, §3, §4

Sequence of MMP9 (Q279R) (P14780 107-707 Q279R limits assumed): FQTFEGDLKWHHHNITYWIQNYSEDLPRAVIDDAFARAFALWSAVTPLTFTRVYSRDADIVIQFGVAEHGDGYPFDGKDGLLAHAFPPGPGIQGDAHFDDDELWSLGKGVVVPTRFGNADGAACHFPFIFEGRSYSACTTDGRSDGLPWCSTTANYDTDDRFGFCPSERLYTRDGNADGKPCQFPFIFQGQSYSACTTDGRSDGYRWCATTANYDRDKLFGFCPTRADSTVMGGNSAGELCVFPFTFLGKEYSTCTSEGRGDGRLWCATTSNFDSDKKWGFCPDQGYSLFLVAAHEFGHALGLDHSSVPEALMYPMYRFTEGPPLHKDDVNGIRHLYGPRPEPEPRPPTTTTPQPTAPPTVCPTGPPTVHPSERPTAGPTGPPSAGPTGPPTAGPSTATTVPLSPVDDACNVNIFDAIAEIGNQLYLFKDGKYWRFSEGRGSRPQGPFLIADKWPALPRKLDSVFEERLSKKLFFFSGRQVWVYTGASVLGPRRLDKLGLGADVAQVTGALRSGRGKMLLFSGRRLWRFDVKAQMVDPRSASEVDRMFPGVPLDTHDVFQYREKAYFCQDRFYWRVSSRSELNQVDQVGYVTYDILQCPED

In general, IC50 refers to the concentration needed to halve the response being measured. With `COc1ccc(S(=O)(=O)N(CC(=O)NO)CC(C)C)cc1` [NNGH, N-Isobutyl-N-(4-methoxyphenylsulfonyl)glycyl Hydroxamic Acid], the IC50 in assay [1] and in assay [2] was 4 nM each time.
